Values after ≈ are worked out from the molar mass of the structure shown.
Assays:
[1] = system: 44 ligands (including receptors, transporters, ion channels, enzymes and kinases); experiment: In vitro safety pharmacology binding assays (CEREP profile); conditions: 10 μM, 44 ligands tested
Description: In vitro pharmacology binding assays were carried out for compound (I), comparative compound (II) and comparative compound (III) to evaluate the percentage of inhibition against 44 ligands (including receptors, transporters, ion channels, enzymes and kinases) at a concentration of 10 μM of compound (I), comparative compound (II) or comparative compound (III). Compound binding was calculated as a percentage of inhibition of the binding of a radioactively labelled ligand specific for each target. Results showing an inhibition higher than 50% are considered to represent discernible effects of compound (I), comparative compound (II) or comparative compound (III). […] The in vitro pharmacology binding assays for compound (I) and comparative compounds (II) and (III) was carried out separately over different days, and compared in FIGS. 1a, 1b, 1c, and 1d.

[2] = system: Escherichia coli (100 isolates); experiment: MIC90 by broth microdilution (EUCAST), 100 isolates; type: cell-based
Description: (§1) Minimum Inhibitory Concentration (MIC90) versus 100 isolates of Escherichia coli and Klebsiella pneumonia were determined. The Minimum Inhibitory Concentration at which 90% of the isolates (strains) are inhibited (MIC90) were measured by broth microdilution in line with EUCAST susceptibility testing standards (www.eucast.org). Bacterial inocula were prepared at ca 1×10^6 CFU/mL by diluting 100-fold a 0.5 McFarland suspension. Antibacterial panels containing 50 μl of antibacterial solutions at 2× the final concentrations were diluted 2-fold with 50 μl of inoculum to give a final inoculum of ca 5×10^5 CFU/ml and desired test concentrations of antibacterial agents (0.03-64 μg/mL). The plates were incubated according to the guidelines of the Clinical and Laboratory Standards Institute (Clinical and Laboratory Standards Institute. Methods for Dilution Antimicrobial Susceptibility Tests for Bacteria That Grow Aerobically; Approved Standard-Eleventh Edition, CLSI document […], 11 Jan. 2018). The MIC90 (μg/ml) is the MIC value at which greater than or equal to 90% of the isolates (strains) within a test population are inhibited.

[3] = system: Klebsiella pneumonia (100 isolates); experiment: as above; type: cell-based
Description: as §1

[4] = system: Klebsiella pneumoniae ATCC 43816; experiment: Further murine respiratory infection study, intravenous infusion; type: in vivo; conditions: 26 h
Description: Compound (I) was evaluated in further proof-of-concept studies in murine models for the treatment of a respiratory infection with Gram-negative bacteria of the order Enterobacterales, and a urinary tract infection with Gram-negative bacteria of the order Enterobacterales. Each dot, triangle or square indicator represents a single mouse. LOD refers to the limit of detection of the bacteria. […] Each of the proof-of-concept studies was carried out separately. By vehicle is meant pharmaceutically acceptable excipient or carrier. For the further proof-of-concept study for the treatment of a respiratory infection caused or exacerbated by Gram-negative bacteria of the order Enterobacterales, male CD-1 mice were infected with Klebsiella pneumoniae ATCC 43816. Two hours after infection (‘pre-treatment’ in FIG. 5), mice were either treated with a vehicle control (phosphate buffer) containing no compound (I), or a vehicle (phosphate buffer) containing compound (I), administered by intravenous infusion for 1 hour (QD) with a dose of 20 mg/kg of compound (I). For the mice that received the vehicle control containing no compound (I), and some mice who received the vehicle containing compound (I), an additional 1-hour continuous intravenous infusion was administered 3 hours after the time at which the first administration begun (BID, 3 hrs apart).

[5] = Lipophilicity, Log P measured with SiriusT3 (octanol titration); type: physicochemical; conditions: octanol / aqueous sample solution
Description: Log P values of compound (I) and comparative compound (III) were measured using the SiriusT3 instrument from Sirius Analytical by performing an acid-based titration and measuring the shift in pKa when the sample solution is in contact with an immiscible solvent (octanol). Log P for the comparative compound (II) was calculated using Marvin (physico-chemical calculation software). The lipophilicity data for compound (I) and comparative compounds (II) and (III) was collected in separate experiments carried out on different days, and compared in Table 5.

[6] = system: E. coli UT189; experiment: Murine urinary tract infection proof-of-concept study, IV bolus; type: in vivo
Description: Compound (I) and comparative compound (III) were evaluated in proof-of-concept studies in murine models for the treatment of a respiratory infection with Gram-negative bacteria of the order Enterobacterales, a bacteraemia or bloodstream infection with Gram-negative bacteria of the order Enterobacterales, and a urinary tract infection with Gram-negative bacteria of the order Enterobacterales. Each dot, triangle or square indicator represents a single mouse. LOD refers to the limit of detection of the bacteria. […] Each of the proof-of-concept studies was carried out separately. By vehicle is meant pharmaceutically acceptable carrier or excipient. For the proof-of-concept study for the treatment of a urinary tract infection with Enterobacterales, female C3H/HeN mice were infected with E. coli UT189. Twenty-four hours after infection (‘pre-treatment’ in FIGS. 4a-c), a vehicle (20% hydroxypropyl β cyclodextrin) containing no compound (I) or comparative compound (III), or a vehicle (20% hydroxypropyl β cyclodextrin) containing compound (I) or comparative compound (III), was administered by IV bolus of 20 mg/kg, TID (8 hrs apart), over 3 days.

[7] = Permeability; type: in vitro ADME
[8] = system: Klebsiella pneumoniae ATCC 43816; experiment: Murine respiratory infection proof-of-concept study, IV bolus; type: in vivo
Description: Compound (I) and comparative compound (III) were evaluated in proof-of-concept studies in murine models for the treatment of a respiratory infection with Gram-negative bacteria of the order Enterobacterales, a bacteraemia or bloodstream infection with Gram-negative bacteria of the order Enterobacterales, and a urinary tract infection with Gram-negative bacteria of the order Enterobacterales. Each dot, triangle or square indicator represents a single mouse. LOD refers to the limit of detection of the bacteria. […] Each of the proof-of-concept studies was carried out separately. By vehicle is meant pharmaceutically acceptable carrier or excipient. For the proof-of-concept study for the treatment of a respiratory infection caused or exacerbated by Gram-negative bacteria of the order Enterobacterales, CD-1 mice were infected with Klebsiella pneumoniae ATCC 43816. Two hours after infection (‘pre-treatment’ in FIG. 2), a vehicle (20% hydroxypropyl β cyclodextrin) containing no compound (I) or comparative compound (III), or a vehicle (20% hydroxypropyl β cyclodextrin) containing compound (I) or comparative compound (III), was administered by IV bolus at 20 mg/kg, TID (8 hrs apart), over one day.

[9] = 1 h IV infusion 20 mg/kg twice (BID, 3 hrs apart)
[10] = IV bolus 20 mg/kg TID over 3 days, 96 h after initial infection
[11] = difference in log reduction, 96 h

For `Cc1cnccc1-c1[nH]c(N)nc1-c1ccc2c(c1)N(C(=O)C(C)(C)N)CCO2` [Compound (I), 2-amino-1-(6-(2-amino-5-(3-methylpyridin-4-yl)-1H-imidazol-4-yl)-2,3-dihydro-4H-benzo[b][1,4]oxazin-4-yl)-2-methylpropan-1-one], which “ligands with inhibition higher than 50%” value [1] is on record?
The value was “only a single ligand”.

And the MIC90 [2]?
The MIC90 was 1 µg/mL (≈ 2.55 µM).

What about the “MIC Range” value [2] of the same molecule?
Its value is 0.12 to 4.00 µg/mL.

What about the “MIC Range” value [3] of the same molecule?
The value was 0.25 to 8.00 µg/mL.

And the MIC90 ([3]; Klebsiella pneumoniae)?
The MIC90 was 2 µg/mL (≈ 5.1 µM).

What about the “reduction of bacterial burden in the lung compared to pre-treatment (stasis levels)” value ([4]; 1 h IV infusion 20 mg/kg once (QD)) of the same molecule?
The value was 0.95 log.

What about the “reduction of bacterial burden in the lung compared to pre-treatment (stasis levels)” value [4, 9] of the same molecule?
Its value is 1.80 log.

And the “reduction of bacterial burden in the lung compared to vehicle” value [4, 9]?
The value was 5.20 log.

And the “reduction of bacterial burden in the lung compared to vehicle” value ([4]; male CD-1 mice, 1 h IV infusion 20 mg/kg once (QD))?
The value was 4.35 log.

And the logP [5]?
Its logP is 1.6.

And the “bacterial burden in the urine at end of study” value ([6]; IV bolus 20 mg/kg TID over 3 days, 96 h)?
Its value is “below the limit of detection (LOD)”.

What about the “reduction of bacterial burden in the bladder compared to vehicle” value [6, 10] of the same molecule?
Its value is 5.67 log.

And the “reduction of bacterial burden in the kidney compared to vehicle” value [6, 10]?
The value was 4.73 log.

What about the “more efficacious than comparative compound (III), bladder” value [6, 11] of the same molecule?
Its value is 3 log.

What about the “more efficacious than comparative compound (III), urine” value [6, 11] of the same molecule?
Its value is 3 log.

What about the “reduction of bacterial burden in the urine compared to vehicle” value ([6]; female C3H/HeN mice, IV bolus 20 mg/kg TID over 3 days, 96 h after initial infection) of the same molecule?
The value was 6.59 log.

And the permeability [7]?
The permeability was “good permeability”.

And the “reduction of bacterial burden in the lung compared to vehicle” value ([8]; CD-1 mice, IV bolus 20 mg/kg TID over one day, 26 h from initial infection)?
Its value is 6.24 log.

And the “more efficacious than comparative compound (III), lung” value ([8]; difference in log reduction, 26 h)?
Its value is 2 log.

From US20240228474A1, “ANTIBACTERIAL COMPOUND” (DISCUVA LIMITED, priority 2021, published 2024)
